Experimental data as given in patent US7378397B2 (The Provost, Fellows and Scholars of the College of the …, priority 2000, dated 2008).

Tests used:
Male Wistar rats [1] = assay: behavioural effects (activity score, WDS, locomotion) after i.p. administration; assay type: in vivo, rat; conditions: i.p.
Method: Methods: Behavioural studies were conducted using experimentally naïve Male Wistar rats (200-250 g) maintained in a temperature controlled (21° C.), artificially-lighted (12 hr light cycle) room with free access to food and water. Behavioural effects of TRH±TRH-DE inhibitor following intraperitoneal (i.p.) administration: On the day of the experiment, animals were singly housed in perspex cages (30×20×20 cm) and allowed to acclimatize for 20 min. After this period, two baseline measurements of behaviour were made at 10 and 5 min prior to administration of drugs. […] Animals were then observed by two independent observers who were blind to treatment, every 5 min for 30 sec. Blocks of 5 animals were treated at a time, 1 per drug group. Blocks were repeated 5 times. The occurrence of individual behaviours were noted using a behavioural check list, which included grooming, locomotion, rearing, chewing, sniffing, head weave, tail elevation, and/or straub tail and WDS behaviours. These behaviours were summed to yield an overall activity count. Animals were videotaped for separate subsequent analysis of WDS. All WDS behaviours occurring during each 5 min interval after drug administration were counted. The statistical significance of differences between behavioural effects of treatments was determined using the Student's t-test or ANOVA, followed by a post-ANOVA test, as indicated. Radioligand binding data were analysed using non-linear curve fitting software (Prism, Graph Pad Software Inc.). IC50 values calculated from competition experiments were converted to Ki values using the Cheng-Prusoff (41) equation Ki=IC50/(1+L/Kd), where L=ligand concentration and Kd=the apparent dissociation constant for [^3[…].

Male Wistar rats [2] = assay: behavioural effects (WDS, locomotion) after i.c.v. administration; assay type: in vivo, rat; conditions: 30 min
Method: Methods: Behavioural studies were conducted using experimentally naïve Male Wistar rats (200-250 g) maintained in a temperature controlled (21° C.), artificially-lighted (12 hr light cycle) room with free access to food and water. Behavioural effects of […] following intra-cerebroventricular (i.c.v.) administration: Animals were implanted with guide cannula aimed at the lateral cerebral ventricles (AP-0.92 mm, ML-1.5 mm, DV-2.6 mm relative to Bregma, atlas of Paxinos & Watson) under halothane anaesthesia. One week following surgery placement of the cannulae was assessed by the ability of a microinjection of angiotensin II (200 ng in 1 μl) to induce drinking behaviour. […] They were then administered either vehicle (1 μl 0.9% saline) or […] (5 μg in 1 μl) followed 1 minute later by vehicle (1 μl 0.9% saline) or TRH (5 μg in 1 μl). One minute after the last i.c.v. injection animals were placed back into the perspex cage and their behaviour monitored by a computer automated tracking system for 30 minutes (Ethovision Pro, Noldus) to provide measures of locomotor activity. Animals were videotaped for subsequent blind analysis of WDS behaviour by a trained observer. A threshold dose of 5 μg TRH was chosen for i.c.v. administration so that if […] enhanced responses to TRH, this would be clearly visible. The statistical significance of differences between behavioural effects of treatments was determined using the Student's t-test or ANOVA, followed by a post-ANOVA test, as indicated. Radioligand binding data were analysed using non-linear curve fitting software (Prism, Graph Pad Software Inc.). IC50 values calculated from competition experiments were converted to Ki values using the Cheng-Prusoff (41) equation Ki=IC50/(1+L/Kd), where L=ligand concentration and Kd=the apparent dissociation constant for [^3[…].

TRH-DE [3] = molecular target: T1, TRH-DE (Sus scrofa, UniProt A0A287AP33); assay: HPLC assay of peptide hydrolysis by TRH-DE (Glp production); assay type: biochemical, porcine; conditions: for hydrolysis by TRH-DE (release of Glp): 1 mM peptide incubated with TRH-DE 18 h at 37° C., HPLC
T1 construct: The inventor purified TRH-DE from porcine brain according to purification procedures previously published by Dr. K. Bauer; from tissue; host or cells: porcine brain (TRH-DE); bovine kidney (DPP-IV, gift from Dr. C. H. Williams)
T1 sequence (A0A287AP33 1-1066): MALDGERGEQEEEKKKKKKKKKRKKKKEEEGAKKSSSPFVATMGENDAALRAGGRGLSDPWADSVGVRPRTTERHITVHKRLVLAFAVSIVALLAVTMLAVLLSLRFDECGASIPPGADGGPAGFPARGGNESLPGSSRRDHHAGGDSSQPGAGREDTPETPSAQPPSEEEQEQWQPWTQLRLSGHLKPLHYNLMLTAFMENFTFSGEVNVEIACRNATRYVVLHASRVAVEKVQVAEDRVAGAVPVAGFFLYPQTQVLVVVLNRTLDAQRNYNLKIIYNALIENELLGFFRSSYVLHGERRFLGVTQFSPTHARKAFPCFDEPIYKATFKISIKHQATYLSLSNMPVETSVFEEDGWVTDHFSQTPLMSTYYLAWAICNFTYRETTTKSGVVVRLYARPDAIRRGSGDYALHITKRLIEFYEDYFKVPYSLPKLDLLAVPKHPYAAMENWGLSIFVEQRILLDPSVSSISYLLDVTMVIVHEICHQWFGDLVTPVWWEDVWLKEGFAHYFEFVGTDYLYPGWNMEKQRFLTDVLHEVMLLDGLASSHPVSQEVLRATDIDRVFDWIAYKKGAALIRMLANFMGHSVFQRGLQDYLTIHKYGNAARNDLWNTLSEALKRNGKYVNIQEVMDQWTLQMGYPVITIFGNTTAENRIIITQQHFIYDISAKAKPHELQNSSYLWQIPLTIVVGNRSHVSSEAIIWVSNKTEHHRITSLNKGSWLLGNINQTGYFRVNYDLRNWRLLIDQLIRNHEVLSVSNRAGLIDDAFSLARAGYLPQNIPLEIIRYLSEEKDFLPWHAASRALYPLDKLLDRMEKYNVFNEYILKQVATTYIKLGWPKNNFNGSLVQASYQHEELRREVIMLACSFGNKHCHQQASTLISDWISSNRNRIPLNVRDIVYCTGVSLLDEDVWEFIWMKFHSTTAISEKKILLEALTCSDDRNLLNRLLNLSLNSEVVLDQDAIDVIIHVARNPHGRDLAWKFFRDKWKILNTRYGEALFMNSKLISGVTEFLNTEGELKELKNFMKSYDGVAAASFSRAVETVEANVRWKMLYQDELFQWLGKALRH
Method: The inventor purified TRH-DE from porcine brain according to purification procedures previously published by Dr. K. Bauer, (Max-Planck-Institut, Hannover, Germany) (1). TRH-DE was purified almost 20,000 fold. […] Dipeptidyl peptidase IV (DPP-IV) (EC 3.4.14.5), purified from bovine kidney (7.7 mg ml^−1, specific activity of 17.5 U mg^−1 with Gly-ProAMC as substrate), was obtained as a gilt from Dr. C. H. Williams (Queen's University Belfast, U.K). (DPP-IV was used as the coupling enzyme used in the fluorometric assays).
One unit (U) of enzyme activity was defined as that amount catalysing the formation of one μmol of product in one minute under the standard conditions employed. All incubations in the assays described below were carried out in 20 mM potassium phosphate buffer, pH 7.5, at 37° C.
Kinetic analysis of the peptide library using HPLC—The ability of each peptide in the library to act as a TRH-DE substrate was assessed using HPLC. As an initial screen, 1 mM peptide was incubated with 0.8 μg TRH-DE in a total volume of 1 ml for 18 h at 37° C. Control samples were included in which peptide (1 mM) or Glp (0.2 mM-0.8 mM) were incubated under identical conditions in the absence of TRH-DE. TRH-DE activity was terminated by the addition of TFA (0.15% v/v) and samples were then analysed using HPLC as described previously (24). Products resulting from TRH-DE hydrolysis could be separated on a C-18 reverse-phase column (Hypersil, UK) using a linear gradient of 0-70% acetonitrile in 0.08% (v/v) TFA. The concentration of Glp formed by the action of TRH-DE on the peptide library was measured by UV absorbance at 206 nm with a quantitative detection limit of 0.1 mM for a 40 μl injection volume, employing a signal to noise ratio of 10. Following the incubation of each peptide with TRH-DE, evidence of Glp in the sample was taken to indicate that the peptide was a TRH-DE substrate.
The rates of hydrolysis for each of those peptides identified as substrates were then compared by measuring Gip production using microassays with shorter incubation times. In these assays peptide (1 mM) was incubated at 37° C. in a total volume of 100 μl. 0.8-3.2 μg TRH-DE and incubations times of 5 min to 18 h were used routinely. Measurements were made in triplicate. The rate of TRH-OH hydrolysis was also measured by this method.

[4] = molecular target: TRH receptors in rat cortical membranes; assay: radioligand binding to ^3H-3MeHis-TRH-labelled receptors in rat cortex; conditions: competition with 6-8 nM ^3H-3MeHis-TRH, Cheng-Prusoff
Method: Evaluation of the ability of TRH, Glp-Asn-ProNH2, and Glp-Asn-ProAMC to bind to ^3H-3MeHis-TRH-labelled receptors in rat cortex: Radioligand binding assays were conducted to investigate the possibility that the two TRH-DE inhibitors might exert their effects by acting independently at TRH receptors in the brain.
Cortex tissue from male Sprague-Dawley rats (250 g) was dissected out, weighed and homogenised in 30 volumes of ice-cold sodium phosphate buffer (0.02 M, pH 7.5). The homogenates were centrifuged at 30,000 g at 4° C. for 30 min. The supernatant was discarded and the pellet was resuspended at 100 mg wet wt/ml in buffer containing 177 μM bacitracin. […] Non-specific binding was defined in the presence of 10 μM TRH.
The statistical significance of differences between behavioural effects of treatments was determined using the Student's t-test or ANOVA, followed by a post-ANOVA test, as indicated. Radioligand binding data were analysed using non-linear curve fitting software (Prism, Graph Pad Software Inc.). IC50 values calculated from competition experiments were converted to Ki values using the Cheng-Prusoff (41) equation Ki=IC50/(1+L/Kd), where L=ligand concentration and Kd=the apparent dissociation constant for [^3H]-[3-MeHis]TRH.

TRH-DE [5] = molecular target: T1, TRH-DE; conditions: From Ref. 23 (inventor's publication); cited from earlier work

hydrolysis by TRH-DE (release of Glp) (TRH-DE [3]): degraded fully
hydrolysis by TRH-DE (release of Glp) (TRH-DE [3]; listed as TRH): no TRH (RT 8.566 min) remained
Vmax (TRH-DE [3]; estimated from HPLC rates of hydrolysis using Vmax=vo{(Km+[S])/[S]}): 2.63 ± 0.26 (11) U mg^−1
Rate of hydrolysis (TRH-DE [3]; peptide 1 mM, 37° C., Glp production by HPLC, mean±S.D.): 2.54 ± 0.25 (11) U mg^−1
pKi [4]: 7.65±0.17
SMILES: NC(=O)[C@@H]1CCCN1C(=O)[C@H](Cc1cnc[nH]1)NC(=O)[C@@H]1CCC(=O)N1 [Glp-His-ProNH2, L-pyroglutamyl-L-histidyl-L-prolineamide]
individual behaviours contributing to the activity score (Male Wistar rats [1]; 10 mg/kg): primarily promoted grooming, sniffing, and chewing behaviours
rat activity scores compared with saline (Male Wistar rats [1]; 10 mg/kg each, 40 min post injection): increase in rat activity scores throughout the 40 min period post injection
decline of behavioural responses with time (Male Wistar rats [1]; 10 mg/kg each, late observation period): tended to decline 35 min after i.p. administration
induction of WDS (Male Wistar rats [1]; 10 mg/kg, 40 min observation): immediate induction of WDS in all animals with the response gradually declining to zero after 40 min
number of WDS compared with vehicle (Male Wistar rats [2]; 5 μg alone): Neither TRH nor Glp-Asn-ProAMC alone produced a significantly greater number of WDS than vehicle
number of WDS during the observation period (Male Wistar rats [2]; TRH 5 μg ± Glp-Asn-ProAMC 5 μg, mean±S.E., n=6): 3.33±1.23 WDS/30 min
Km (TRH-DE [5]): 35 µM
